Laboratory results reported in patent US10815230B2, “Casein kinase 1 delta inhibitor” (ELECTROPHORETICS LIMITED, priority 2015, dated 2020).

Key:
Assay in all cases: KINOMEscan binding assay
Details in all cases: read-out: % Ctrl @ 10000 nM
MEK6 = MEK6 (Homo sapiens, UniProt P52564)
NEK7 = NEK7 (Homo sapiens, UniProt Q8TDX7)
PKN2 = PKN2 (Homo sapiens, UniProt Q16513)
BMX = BMX (Homo sapiens, UniProt P51813)
CDK3 = CDK3 (Homo sapiens, UniProt Q00526)
ULK1 = target: T1, ULK1 (Homo sapiens, UniProt O75385)
T1 construct: purchased DiscoveRx (KINOMEscan, LeadHunter Discovery services)

PIK3CB = PIK3CB (Homo sapiens, UniProt P42338)
NDR2 = NDR2 (Homo sapiens, UniProt Q9Y2H1)
FLT3 (R834Q) = FLT3 (R834Q) (Homo sapiens, UniProt P36888, R834Q)
[1] = target: RSK2 Kin.Dom.2-C-terminal (Homo sapiens, UniProt P51812)
DRAK2 = DRAK2 (Homo sapiens, UniProt O94768)
PDGFRB = PDGFRB (Homo sapiens, UniProt P09619)
SRMS = SRMS (Homo sapiens, UniProt Q9H3Y6)
SYK = SYK (Homo sapiens, UniProt P43405)
ERBB3 = ERBB3 (Homo sapiens, UniProt P21860)
FLT3 (N841I) = FLT3 (N841I) (Homo sapiens, UniProt P36888, N841I)
MYLK = MYLK (Homo sapiens, UniProt Q15746)
CASK = CASK (Homo sapiens, UniProt O14936)
Sequence of CASK (O14936 whole entry): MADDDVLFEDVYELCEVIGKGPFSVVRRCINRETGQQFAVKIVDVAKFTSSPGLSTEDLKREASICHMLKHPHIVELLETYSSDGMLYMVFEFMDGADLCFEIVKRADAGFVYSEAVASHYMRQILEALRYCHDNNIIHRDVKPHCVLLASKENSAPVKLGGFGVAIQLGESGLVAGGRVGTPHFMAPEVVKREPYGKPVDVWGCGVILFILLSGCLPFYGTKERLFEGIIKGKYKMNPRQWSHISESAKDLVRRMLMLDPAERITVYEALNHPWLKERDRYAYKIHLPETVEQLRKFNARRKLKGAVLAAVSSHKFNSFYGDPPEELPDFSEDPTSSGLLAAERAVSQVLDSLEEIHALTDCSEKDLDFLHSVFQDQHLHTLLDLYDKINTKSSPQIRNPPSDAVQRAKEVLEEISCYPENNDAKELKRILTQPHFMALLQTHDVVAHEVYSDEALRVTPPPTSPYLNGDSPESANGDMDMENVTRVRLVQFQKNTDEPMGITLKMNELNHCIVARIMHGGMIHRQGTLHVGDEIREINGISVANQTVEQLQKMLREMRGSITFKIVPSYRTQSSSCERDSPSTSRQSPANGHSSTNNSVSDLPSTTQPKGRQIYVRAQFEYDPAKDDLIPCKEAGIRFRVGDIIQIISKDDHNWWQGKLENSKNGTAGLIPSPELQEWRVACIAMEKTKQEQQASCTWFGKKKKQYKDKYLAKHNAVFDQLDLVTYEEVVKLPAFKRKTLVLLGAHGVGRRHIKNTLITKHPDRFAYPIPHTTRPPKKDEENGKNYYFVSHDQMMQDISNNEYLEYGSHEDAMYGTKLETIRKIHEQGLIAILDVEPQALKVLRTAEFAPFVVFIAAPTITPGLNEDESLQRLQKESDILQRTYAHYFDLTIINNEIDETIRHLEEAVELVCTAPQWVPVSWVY

PCTK3 = PCTK3 (Homo sapiens, UniProt Q07002)
Sequence of PCTK3 (Q07002 whole entry): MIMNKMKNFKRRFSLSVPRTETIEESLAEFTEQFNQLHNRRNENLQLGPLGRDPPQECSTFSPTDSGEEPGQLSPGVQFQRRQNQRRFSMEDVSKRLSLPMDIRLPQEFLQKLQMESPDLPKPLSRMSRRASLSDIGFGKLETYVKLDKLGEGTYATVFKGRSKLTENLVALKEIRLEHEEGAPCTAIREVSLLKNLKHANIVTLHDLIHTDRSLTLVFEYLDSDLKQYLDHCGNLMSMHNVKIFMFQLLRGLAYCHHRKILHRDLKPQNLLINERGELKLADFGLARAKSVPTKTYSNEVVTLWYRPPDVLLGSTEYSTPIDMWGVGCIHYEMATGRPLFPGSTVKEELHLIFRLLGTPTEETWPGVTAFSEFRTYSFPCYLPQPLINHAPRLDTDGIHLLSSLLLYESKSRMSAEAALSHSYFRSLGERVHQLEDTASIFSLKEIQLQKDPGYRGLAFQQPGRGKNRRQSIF

PFTK1 = PFTK1 (Homo sapiens, UniProt O94921)
FGFR4 = FGFR4 (Homo sapiens, UniProt P22455)
CSNK1E = CSNK1E (Homo sapiens, UniProt P49674)
FLT3 = FLT3 (Homo sapiens, UniProt P36888)
NEK9 = NEK9 (Homo sapiens, UniProt Q8TD19)
EGFR (S752-I759del) = EGFR (S752-I759del) (Homo sapiens, UniProt P00533, DEL752-759)
TRPM6 = TRPM6 (Homo sapiens, UniProt Q9BX84)
PIK3CA (E545A) = PIK3CA (E545A) (Homo sapiens, UniProt P42336, E545A)
EGFR (L861Q) = EGFR (L861Q) (Homo sapiens, UniProt P00533, L861Q)
HASPIN = HASPIN (Homo sapiens, UniProt Q8TF76)
Sequence of HASPIN (Q8TF76 whole entry): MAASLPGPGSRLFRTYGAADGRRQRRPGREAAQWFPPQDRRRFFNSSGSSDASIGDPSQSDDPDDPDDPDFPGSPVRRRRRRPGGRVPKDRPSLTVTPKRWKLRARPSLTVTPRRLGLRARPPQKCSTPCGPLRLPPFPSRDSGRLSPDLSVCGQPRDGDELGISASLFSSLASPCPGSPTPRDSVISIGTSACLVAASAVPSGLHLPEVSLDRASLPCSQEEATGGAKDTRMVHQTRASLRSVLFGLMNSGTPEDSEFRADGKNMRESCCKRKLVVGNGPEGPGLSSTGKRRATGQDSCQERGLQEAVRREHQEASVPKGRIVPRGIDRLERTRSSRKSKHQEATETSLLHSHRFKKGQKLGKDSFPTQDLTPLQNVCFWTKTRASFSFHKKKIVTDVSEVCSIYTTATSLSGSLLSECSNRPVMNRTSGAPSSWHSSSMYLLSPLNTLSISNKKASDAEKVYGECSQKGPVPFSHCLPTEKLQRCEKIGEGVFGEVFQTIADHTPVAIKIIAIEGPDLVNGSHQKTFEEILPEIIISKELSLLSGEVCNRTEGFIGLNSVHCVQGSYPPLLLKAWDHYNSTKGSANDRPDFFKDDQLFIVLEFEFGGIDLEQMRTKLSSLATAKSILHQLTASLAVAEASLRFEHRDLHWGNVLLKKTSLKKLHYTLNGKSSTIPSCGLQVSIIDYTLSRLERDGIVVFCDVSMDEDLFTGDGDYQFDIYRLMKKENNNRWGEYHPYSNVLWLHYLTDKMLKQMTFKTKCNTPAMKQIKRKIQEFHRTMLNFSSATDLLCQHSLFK

TAOK1 = TAOK1 (Homo sapiens, UniProt Q7L7X3)
TRKC = TRKC (Homo sapiens, UniProt Q16288)
CDKL3 = CDKL3 (Homo sapiens, UniProt Q8IVW4)
Sequence of CDKL3 (Q8IVW4 whole entry): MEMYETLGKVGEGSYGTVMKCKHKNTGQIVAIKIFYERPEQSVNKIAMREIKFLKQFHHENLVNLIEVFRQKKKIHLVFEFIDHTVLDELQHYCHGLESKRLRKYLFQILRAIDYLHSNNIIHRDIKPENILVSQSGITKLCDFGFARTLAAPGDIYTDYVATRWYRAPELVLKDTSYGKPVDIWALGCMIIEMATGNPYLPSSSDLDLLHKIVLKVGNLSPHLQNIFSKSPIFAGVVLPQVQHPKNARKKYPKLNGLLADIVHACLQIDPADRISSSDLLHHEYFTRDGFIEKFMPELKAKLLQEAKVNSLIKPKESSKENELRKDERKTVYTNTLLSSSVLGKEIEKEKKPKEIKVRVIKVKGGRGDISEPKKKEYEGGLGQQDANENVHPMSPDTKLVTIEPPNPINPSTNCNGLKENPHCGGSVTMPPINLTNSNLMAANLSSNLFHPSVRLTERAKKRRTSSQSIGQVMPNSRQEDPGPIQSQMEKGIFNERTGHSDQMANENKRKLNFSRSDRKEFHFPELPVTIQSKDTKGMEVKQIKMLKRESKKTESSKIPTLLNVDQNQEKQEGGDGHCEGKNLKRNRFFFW

KIT (V559D) = KIT (V559D) (Homo sapiens, UniProt P10721, V559D)
PIK3C2G = PIK3C2G (Homo sapiens, UniProt O75747)
Sequence of PIK3C2G (O75747 whole entry): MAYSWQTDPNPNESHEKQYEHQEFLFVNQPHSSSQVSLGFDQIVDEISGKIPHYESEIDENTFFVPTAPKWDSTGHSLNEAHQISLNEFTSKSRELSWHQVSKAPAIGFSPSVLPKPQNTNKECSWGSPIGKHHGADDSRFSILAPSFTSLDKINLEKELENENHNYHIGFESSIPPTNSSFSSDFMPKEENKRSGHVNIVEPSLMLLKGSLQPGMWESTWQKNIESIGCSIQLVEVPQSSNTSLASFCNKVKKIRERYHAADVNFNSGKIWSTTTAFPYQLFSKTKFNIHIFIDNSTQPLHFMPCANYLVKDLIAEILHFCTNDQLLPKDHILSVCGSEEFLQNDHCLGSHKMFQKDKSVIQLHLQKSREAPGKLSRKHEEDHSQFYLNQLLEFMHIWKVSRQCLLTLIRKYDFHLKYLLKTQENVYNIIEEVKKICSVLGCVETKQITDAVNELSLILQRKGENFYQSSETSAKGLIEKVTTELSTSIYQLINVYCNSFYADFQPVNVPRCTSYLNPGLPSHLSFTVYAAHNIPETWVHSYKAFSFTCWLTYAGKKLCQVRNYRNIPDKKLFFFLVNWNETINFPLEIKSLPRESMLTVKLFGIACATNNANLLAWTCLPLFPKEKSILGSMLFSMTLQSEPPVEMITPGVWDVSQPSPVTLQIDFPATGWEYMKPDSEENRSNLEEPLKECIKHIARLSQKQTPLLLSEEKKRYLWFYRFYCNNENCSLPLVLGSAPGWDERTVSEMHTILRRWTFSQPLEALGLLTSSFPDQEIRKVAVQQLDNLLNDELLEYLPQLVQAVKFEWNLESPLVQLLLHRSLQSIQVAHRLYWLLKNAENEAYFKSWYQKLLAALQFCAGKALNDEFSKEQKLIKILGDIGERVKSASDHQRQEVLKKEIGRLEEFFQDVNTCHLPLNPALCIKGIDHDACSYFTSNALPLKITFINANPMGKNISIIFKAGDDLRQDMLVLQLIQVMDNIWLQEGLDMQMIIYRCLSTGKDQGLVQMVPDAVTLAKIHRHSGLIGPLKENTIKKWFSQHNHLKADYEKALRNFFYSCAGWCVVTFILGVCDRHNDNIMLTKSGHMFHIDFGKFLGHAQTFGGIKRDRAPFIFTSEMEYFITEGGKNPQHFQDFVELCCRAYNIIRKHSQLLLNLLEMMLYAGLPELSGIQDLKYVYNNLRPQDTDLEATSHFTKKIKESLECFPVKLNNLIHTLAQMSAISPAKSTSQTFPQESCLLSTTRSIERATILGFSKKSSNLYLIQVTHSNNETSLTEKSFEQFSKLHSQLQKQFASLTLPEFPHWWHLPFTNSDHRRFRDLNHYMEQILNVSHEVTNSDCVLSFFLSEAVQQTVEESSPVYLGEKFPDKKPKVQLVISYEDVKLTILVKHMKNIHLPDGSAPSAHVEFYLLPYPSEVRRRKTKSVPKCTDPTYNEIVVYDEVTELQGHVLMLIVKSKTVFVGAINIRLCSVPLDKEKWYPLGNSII

MEK1 = MEK1 (Homo sapiens, UniProt Q02750)
Sequence of MEK1 (Q02750 whole entry): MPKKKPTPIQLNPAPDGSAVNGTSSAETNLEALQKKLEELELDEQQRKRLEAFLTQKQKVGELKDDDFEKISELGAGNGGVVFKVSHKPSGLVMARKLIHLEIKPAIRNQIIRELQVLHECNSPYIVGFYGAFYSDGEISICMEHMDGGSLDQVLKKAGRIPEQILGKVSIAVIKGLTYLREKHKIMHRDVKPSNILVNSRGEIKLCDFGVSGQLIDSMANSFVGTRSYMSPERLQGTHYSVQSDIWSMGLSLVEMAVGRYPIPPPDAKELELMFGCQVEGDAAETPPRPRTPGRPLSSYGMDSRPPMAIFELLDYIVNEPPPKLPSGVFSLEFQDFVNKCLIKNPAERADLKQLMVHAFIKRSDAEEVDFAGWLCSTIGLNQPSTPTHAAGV

RET = RET (Homo sapiens, UniProt P07949)
LKB1 = target: T2, LKB1 (Homo sapiens, UniProt Q15831)
T2 construct: T7 phage fusion (most assays) or DNA label after HEK293 expression; purchased DiscoveRx (KINOMEscan, LeadHunter Discovery services); host or cells: T7 phage in E. coli (BL21-derived) or HEK293

INSRR = INSRR (Homo sapiens, UniProt P14616)
AXL = AXL (Homo sapiens, UniProt P30530)
[2] = target: ABL1 (F317L) non-phosphorylated (Homo sapiens, UniProt P00519, F317L)
MAP4K5 = target: T3, MAP4K5 (Homo sapiens, UniProt Q9Y4K4)
T3 construct: T7 phage fusion (most assays) or DNA label after HEK293 expression; purchased DiscoveRx (KINOMEscan, LeadHunter Discovery services); host or cells: T7 phage in E. coli (BL21-derived) or HEK293

Sequence of MEK6 (P52564 whole entry): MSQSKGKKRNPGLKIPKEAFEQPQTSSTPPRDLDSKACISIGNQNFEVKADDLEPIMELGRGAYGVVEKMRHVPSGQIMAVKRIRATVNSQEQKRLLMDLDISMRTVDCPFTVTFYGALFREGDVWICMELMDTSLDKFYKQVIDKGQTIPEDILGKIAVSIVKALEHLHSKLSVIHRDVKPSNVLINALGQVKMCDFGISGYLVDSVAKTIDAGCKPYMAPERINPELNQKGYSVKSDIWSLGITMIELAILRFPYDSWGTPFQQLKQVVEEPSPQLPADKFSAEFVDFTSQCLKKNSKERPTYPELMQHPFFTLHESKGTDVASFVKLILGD

**Q.** Which results are given for Nc1ncc(-c2nc3ccccc3o2)c(-c2ccncc2)n1 [Comparative Compound 324, 5-(1,3-benzoxazol-2-yl)-4-(pyridine-4-yl)pyrimidin-2-amine]?
**A.** remaining binding at 10 µM (MEK6): 98%; remaining binding at 10 µM (NEK7): 100%; remaining binding at 10 µM (PKN2): 94%; remaining binding at 10 µM (BMX): 100%; remaining binding at 10 µM (CDK3): 98%; remaining binding at 10 µM (ULK1): 93%; remaining binding at 10 µM (PIK3CB): 100%; remaining binding at 10 µM (NDR2): 96%; remaining binding at 10 µM (FLT3 (R834Q)): 97%; remaining binding at 10 µM [1]: 100%; remaining binding at 10 µM (DRAK2): 87%; remaining binding at 10 µM (PDGFRB): 90%; remaining binding at 10 µM (SRMS): 100%; remaining binding at 10 µM (SYK): 100%; remaining binding at 10 µM (ERBB3): 92%; remaining binding at 10 µM (FLT3 (N841I)): 83%; remaining binding at 10 µM (MYLK): 86%; remaining binding at 10 µM (CASK): 78%; remaining binding at 10 µM (PCTK3): 86%; remaining binding at 10 µM (PFTK1): 96%; remaining binding at 10 µM (FGFR4): 100%; remaining binding at 10 µM (CSNK1E): 1.4%; remaining binding at 10 µM (FLT3): 100%; remaining binding at 10 µM (NEK9): 100%; remaining binding at 10 µM (EGFR (S752-I759del)): 84%; remaining binding at 10 µM (TRPM6): 53%; remaining binding at 10 µM (PIK3CA (E545A)): 76%; remaining binding at 10 µM (EGFR (L861Q)): 64%; remaining binding at 10 µM (HASPIN): 70%; remaining binding at 10 µM (TAOK1): 100%; remaining binding at 10 µM (TRKC): 81%; remaining binding at 10 µM (CDKL3): 100%; remaining binding at 10 µM (KIT (V559D)): 69%; remaining binding at 10 µM (PIK3C2G): 99%; remaining binding at 10 µM (MEK1): 97%; remaining binding at 10 µM (RET): 94%; remaining binding at 10 µM (LKB1): 85%; remaining binding at 10 µM (INSRR): 100%; remaining binding at 10 µM (AXL): 100%; remaining binding at 10 µM [2]: 100%; remaining binding at 10 µM (MAP4K5): 88%

**Q.** For CNc1c(C(N)=O)c2ccccn2c1C(=O)c1ccc(F)cc1 [Compound A, 2-methyl-amino-3-[(4-fluorophenyl)carbonyl]indolizine-1-carboxamide], which remaining binding at 10 µM (MEK6) is on record?
**A.** The remaining binding at 10 µM was 73%.

**Q.** And the remaining binding at 10 µM (NEK7)?
**A.** Its remaining binding at 10 µM is 100%.

**Q.** And the remaining binding at 10 µM (PKN2)?
**A.** The remaining binding at 10 µM was 100%.

**Q.** And the remaining binding at 10 µM (BMX)?
**A.** The remaining binding at 10 µM was 91%.

**Q.** And the remaining binding at 10 µM (CDK3)?
**A.** The remaining binding at 10 µM was 92%.

**Q.** And the remaining binding at 10 µM (ULK1)?
**A.** The remaining binding at 10 µM was 86%.

**Q.** What about the remaining binding at 10 µM (PIK3CB) of the same molecule?
**A.** The remaining binding at 10 µM was 100%.

**Q.** What about the remaining binding at 10 µM (NDR2) of the same molecule?
**A.** The remaining binding at 10 µM was 85%.

**Q.** What about the remaining binding at 10 µM (FLT3 (R834Q)) of the same molecule?
**A.** Its remaining binding at 10 µM is 95%.

**Q.** What about the remaining binding at 10 µM [1] of the same molecule?
**A.** The remaining binding at 10 µM was 43%.

**Q.** And the remaining binding at 10 µM (DRAK2)?
**A.** Its remaining binding at 10 µM is 87%.

**Q.** What about the remaining binding at 10 µM (PDGFRB) of the same molecule?
**A.** The remaining binding at 10 µM was 45%.

**Q.** What about the remaining binding at 10 µM (SRMS) of the same molecule?
**A.** The remaining binding at 10 µM was 93%.

**Q.** And the remaining binding at 10 µM (SYK)?
**A.** The remaining binding at 10 µM was 86%.

**Q.** What about the remaining binding at 10 µM (ERBB3) of the same molecule?
**A.** Its remaining binding at 10 µM is 62%.

**Q.** And the remaining binding at 10 µM (FLT3 (N841I))?
**A.** The remaining binding at 10 µM was 87%.

**Q.** And the remaining binding at 10 µM (MYLK)?
**A.** The remaining binding at 10 µM was 71%.

**Q.** What about the remaining binding at 10 µM (CASK) of the same molecule?
**A.** Its remaining binding at 10 µM is 77%.

**Q.** And the remaining binding at 10 µM (PCTK3)?
**A.** Its remaining binding at 10 µM is 84%.

**Q.** What about the remaining binding at 10 µM (PFTK1) of the same molecule?
**A.** Its remaining binding at 10 µM is 77%.

**Q.** What about the remaining binding at 10 µM (FGFR4) of the same molecule?
**A.** Its remaining binding at 10 µM is 100%.

**Q.** What about the remaining binding at 10 µM (CSNK1E) of the same molecule?
**A.** Its remaining binding at 10 µM is 0.1%.

**Q.** And the remaining binding at 10 µM (FLT3)?
**A.** The remaining binding at 10 µM was 96%.

**Q.** What about the remaining binding at 10 µM (NEK9) of the same molecule?
**A.** The remaining binding at 10 µM was 100%.

**Q.** What about the remaining binding at 10 µM (EGFR (S752-I759del)) of the same molecule?
**A.** Its remaining binding at 10 µM is 18%.

**Q.** And the remaining binding at 10 µM (TRPM6)?
**A.** Its remaining binding at 10 µM is 69%.

**Q.** What about the remaining binding at 10 µM (PIK3CA (E545A)) of the same molecule?
**A.** The remaining binding at 10 µM was 73%.

**Q.** And the remaining binding at 10 µM (EGFR (L861Q))?
**A.** The remaining binding at 10 µM was 29%.

**Q.** And the remaining binding at 10 µM (HASPIN)?
**A.** Its remaining binding at 10 µM is 45%.

**Q.** And the remaining binding at 10 µM (TAOK1)?
**A.** The remaining binding at 10 µM was 94%.

**Q.** What about the remaining binding at 10 µM (TRKC) of the same molecule?
**A.** The remaining binding at 10 µM was 75%.

**Q.** What about the remaining binding at 10 µM (CDKL3) of the same molecule?
**A.** Its remaining binding at 10 µM is 93%.

**Q.** And the remaining binding at 10 µM (KIT (V559D))?
**A.** Its remaining binding at 10 µM is 19%.

**Q.** What about the remaining binding at 10 µM (PIK3C2G) of the same molecule?
**A.** Its remaining binding at 10 µM is 100%.

**Q.** What about the remaining binding at 10 µM (MEK1) of the same molecule?
**A.** The remaining binding at 10 µM was 39%.

**Q.** And the remaining binding at 10 µM (RET)?
**A.** Its remaining binding at 10 µM is 80%.

**Q.** What about the remaining binding at 10 µM (LKB1) of the same molecule?
**A.** Its remaining binding at 10 µM is 85%.

**Q.** And the remaining binding at 10 µM (INSRR)?
**A.** The remaining binding at 10 µM was 100%.

**Q.** And the remaining binding at 10 µM (AXL)?
**A.** Its remaining binding at 10 µM is 95%.

**Q.** What about the remaining binding at 10 µM [2] of the same molecule?
**A.** The remaining binding at 10 µM was 88%.

**Q.** What about the remaining binding at 10 µM (MAP4K5) of the same molecule?
**A.** The remaining binding at 10 µM was 62%.
